Laboratory results published in ChEMBL document CHEMBL2375211, “2-methoxyjuglone induces apoptosis in HepG2 human hepatocellular carcinoma cells and exhibits in vivo antitumor activity in a H22 mouse hepatocellular carcinoma model” (J Nat Prod, 2013).
Values after ≈ are worked out from the molar mass of the structure shown. Active and inactive are the calls of the source. The rule behind the calls is not given here.

How the values were obtained:
[1] = system: H22; experiment: Antitumor activity against mouse H22 cells allografted in Kunming mouse assessed as decrease in tumor size at 0.5 to 1 mg/kg/day, ip administered 8 days measured after 10 days; format: functional, organism-based
[2] = system: HepG2; experiment: Cell cycle arrest in human HepG2 cells assessed as accumulation at G1 phase at 6.4 ug/mL after 48 hrs by propidium iodide staining-based flow cytometric analysis (reference value: 64%); format: functional
[3] = system: HepG2; experiment: Cell cycle arrest in human HepG2 cells assessed as accumulation at sub-G1 phase at 4.8 ug/mL after 24 hrs by propidium iodide staining-based flow cytometric analysis (reference value: 4%); format: functional
[4] = system: HepG2; experiment: Cell cycle arrest in human HepG2 cells assessed as accumulation at S phase at 6.4 ug/mL after 48 hrs by propidium iodide staining-based flow cytometric analysis (reference value: 31%); format: functional
[5] = system: HepG2; experiment: Cytotoxicity against human HepG2 cells assessed as cell viability after 24 hrs by MTT assay; format: functional, cell-based; settings: HepG2, 24 h
[6] = system: HepG2; experiment: Cell cycle arrest in human HepG2 cells assessed as accumulation at G2/M phase at 4.8 ug/mL after 24 hrs by propidium iodide staining-based flow cytometric analysis (reference value: 9%); format: functional
[7] = system: HepG2; experiment: Induction of apoptosis in human HepG2 cells assessed as membrane damage at 4.8 to 8 ug/mL after 24 hrs by acridine orange/ethidium bromide staining-based fluorescence microscopic analysis; format: functional, cell-based
[8] = system: HepG2; experiment: Cytotoxicity against human HepG2 cells assessed as cell viability after 48 hrs by MTT assay; format: functional, cell-based; settings: HepG2, 48 h
[9] = system: HepG2; experiment: Cell cycle arrest in human HepG2 cells assessed as accumulation at S phase at 1.6 ug/mL after 48 hrs by propidium iodide staining-based flow cytometric analysis (reference value: 31%); format: functional
[10] = system: HepG2; experiment: Cell cycle arrest in human HepG2 cells assessed as accumulation at G2/M phase at 6.4 ug/mL after 48 hrs by propidium iodide staining-based flow cytometric analysis (reference value: 5%); format: functional
[11] = system: HepG2; experiment: Cell cycle arrest in human HepG2 cells assessed as accumulation at S phase at 3.2 ug/mL after 24 hrs by propidium iodide staining-based flow cytometric analysis (reference value: 46%); format: functional
[12] = system: HepG2; experiment: Induction of apoptosis in human HepG2 cells assessed as apoptotic body formation at 8 ug/mL after 24 hrs by acridine orange/ethidium bromide staining-based fluorescence microscopic analysis; format: functional, cell-based
[13] = system: HepG2; experiment: Cell cycle arrest in human HepG2 cells assessed as accumulation at sub-G1 phase at 8 ug/mL after 24 hrs by propidium iodide staining-based flow cytometric analysis (reference value: 4%); format: functional
[14] = system: HepG2; experiment: Induction of apoptosis in human HepG2 cells assessed as increase in early apoptotic cells after 24 hrs by annexin V-FITC/propidium iodide staining-based FACS flow cytometric analysis; format: functional, cell-based
[15] = system: HepG2; experiment: Cell cycle arrest in human HepG2 cells assessed as accumulation at S phase at 4.8 ug/mL after 48 hrs by propidium iodide staining-based flow cytometric analysis (reference value: 31%); format: functional
[16] = system: HepG2; experiment: Cell cycle arrest in human HepG2 cells assessed as accumulation at G2/M phase at 1.6 ug/mL after 24 hrs by propidium iodide staining-based flow cytometric analysis (reference value: 9%); format: functional
[17] = system: HepG2; experiment: Cell cycle arrest in human HepG2 cells assessed as accumulation at G2/M phase at 1.6 ug/mL after 48 hrs by propidium iodide staining-based flow cytometric analysis (reference value: 5%); format: functional
[18] = system: HepG2; experiment: Cell cycle arrest in human HepG2 cells assessed as accumulation at S phase at 8 ug/mL after 24 hrs by propidium iodide staining-based flow cytometric analysis (reference value: 46%); format: functional
[19] = system: HepG2; experiment: Cell cycle arrest in human HepG2 cells assessed as accumulation at sub-G1 phase at 8 ug/mL after 48 hrs by propidium iodide staining-based flow cytometric analysis (reference value: 3%); format: functional
[20] = system: HepG2; experiment: Cell cycle arrest in human HepG2 cells assessed as accumulation at G2/M phase at 6.4 ug/mL after 24 hrs by propidium iodide staining-based flow cytometric analysis (reference value: 9%); format: functional
[21] = system: HepG2; experiment: Cell cycle arrest in human HepG2 cells assessed as accumulation at G1 phase at 1.6 ug/mL after 24 hrs by propidium iodide staining-based flow cytometric analysis (reference value: 45%); format: functional
[22] = system: HepG2; experiment: Cell cycle arrest in human HepG2 cells assessed as accumulation at G1 phase at 8 ug/mL after 24 hrs by propidium iodide staining-based flow cytometric analysis (reference value: 45%); format: functional
[23] = system: HepG2; experiment: Induction of apoptosis in human HepG2 cells assessed as increase in mitochondrial cytochrome c release after 24 hrs by Western blot analysis; format: functional, cell-based
[24] = system: HepG2; experiment: Cytotoxicity against human HepG2 cells assessed as cell viability after 72 hrs by MTT assay; format: functional, cell-based; settings: HepG2, 72 h
[25] = system: HepG2; experiment: Cell cycle arrest in human HepG2 cells assessed as accumulation at G2/M phase at 3.2 ug/mL after 48 hrs by propidium iodide staining-based flow cytometric analysis (reference value: 5%); format: functional
[26] = system: HepG2; experiment: Cell cycle arrest in human HepG2 cells assessed as accumulation at G1 phase at 1.6 ug/mL after 48 hrs by propidium iodide staining-based flow cytometric analysis (reference value: 64%); format: functional
[27] = system: HepG2; experiment: Cell cycle arrest in human HepG2 cells assessed as accumulation at S phase at 1.6 ug/mL after 24 hrs by propidium iodide staining-based flow cytometric analysis (reference value: 46%); format: functional
[28] = system: HepG2; experiment: Induction of apoptosis in human HepG2 cells assessed as decrease in Bcl-2 level at 1.6 to 4.8 ug/mL after 24 hrs by Western blot analysis; format: functional, cell-based
[29] = system: HepG2; experiment: Cell cycle arrest in human HepG2 cells assessed as accumulation at G2/M phase at 8 ug/mL after 24 hrs by propidium iodide staining-based flow cytometric analysis (reference value: 9%); format: functional
[30] = system: HepG2; experiment: Cell cycle arrest in human HepG2 cells assessed as accumulation at G1 phase at 4.8 ug/mL after 48 hrs by propidium iodide staining-based flow cytometric analysis (reference value: 64%); format: functional

COC1=CC(=O)c2c(O)cccc2C1=O
Activity [1]: Active | Activity [2]: 46% | Activity [3]: 7% | Activity [4]: 52% | IC50 [5]: 3.8 µg/mL (≈ 18.6 µM) | Activity [6]: 0% | Activity [7]: Active | IC50 [8]: 3.7 µg/mL (≈ 18.1 µM) | Activity [9]: 49% | Activity [10]: 2% | Activity [11]: 64% | Activity [12]: Active | Activity [13]: 7% | Activity [14]: Dose-dependent effect | Activity [15]: 66% | Activity [16]: 1% | Activity [17]: 1% | Activity [18]: 59% | Activity [19]: 33% | Activity [20]: 2% | Activity [21]: 37% | Activity [22]: 41% | Activity [23]: Dose-dependent effect | IC50 [24]: 2.7 µg/mL (≈ 13.2 µM) | Activity [25]: 1% | Activity [26]: 50% | Activity [27]: 62% | Activity [28]: Active | Activity [29]: 0% | Activity [30]: 32%
